Test results published in PMC8097242, “Galectin-4 N-Terminal Domain: Binding Preferences Toward A and B Antigens With Different Peripheral Core Presentations” (Frontiers in Chemistry, 2021).
pKd: −log10 of the molar value.

How the values were obtained:
Format in all cases: binding
[1] = target: T1, N-terminal CRD of hGalectin-4 (Gal-4N) (Homo sapiens, UniProt P56470); experiment: Isothermal titration calorimetry (ITC); settings: for Kd: PBS pH 7.4, single binding site model
T1 construct: N-terminal CRD of hGalectin-4 (amino acids 1–150, including an additional C-terminus His-Tag); His-Tag (C, cleaved yes); made in house; host or cells: E. coli BL21 (pET29b)
T1 sequence (P56470 1-150): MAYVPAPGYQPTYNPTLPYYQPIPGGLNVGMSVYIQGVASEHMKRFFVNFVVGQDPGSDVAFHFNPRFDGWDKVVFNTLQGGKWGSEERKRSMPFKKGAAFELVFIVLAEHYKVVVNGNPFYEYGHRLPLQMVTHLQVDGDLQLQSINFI
Description: Isothermal titration calorimetry experiments were performed using the MicroCal PEAQ-ITC calorimeter (Malvern Panalytical, Malvern, United Kingdom). Samples containing 100–200 μM of Gal-4N in PBS (50 mM sodium phosphate, pH 7.4, 300 mM NaCl) were titrated with stocks of 3–10 mM in PBS of glycans 4, 5, 7, 8, 9, and 11. During the automated experiment, small aliquots (2–3 μL) of the sugar stocks were added to the cell containing the lectin. Curve fitting to a single binding site model was performed with the MicroCal Origin 7 software.
Isothermal titratrion calorimetry (ITC). Isothermal Titration Calorimetry experiments were performed using MicroCal PEAQ-ITC calorimeter. Samples containing 100-200 µM of Gal-4N in PBS (50 mM sodium phosphate pH 7.4, 300 mM NaCl) were titrated with stocks of 3-10 mM in PBS of glycans A type 1, A type 2, A type 6, B type 1, B type 2 and B type 6. During the automated experiment, small aliquots (2-3 µL) of the sugar stocks were added to the cell containing the lectin. The association constants and the thermodynamic profile of the binding was calculated from the fitting of the titration data to a single binding site model.

[2] = target: T1, N-terminal CRD of hGalectin-4 (Gal-4N); experiment: 1H-15N HSQC NMR-based titrations (chemical shift perturbation) of 15N-labeled Gal-4N; settings: for Kd: HSQC NMR-based titration, 50 μM 15N-labeled lectin, 298 K, read-out: KD (μM) (NMR)
Description: The molecular recognition event was also analyzed from the perspective of the lectin. Thus, a chemical shift perturbation (CSP) analysis of the changes produced in the ^1H-^15N HSQC spectra recorded for ^15N-labeled Gal-4N upon addition of the different ligands was carried out. This analysis required the NH backbone NMR assignment of the lectin signals, following well-established triple resonance 3D NMR methods (see Materials and methods and Supplementary Information). The assignment protocol allowed assigning 80% of the NH backbone resonances. In addition to the ligands shown in Scheme 1, the corresponding non-fucosylated analogs and the H antigens (devoid of the terminal Gal/GalNAc moieties, see Supplementary Information), as well as lactose, were also employed. Thus, a full comparative analysis on the monosaccharide-specific effects on the lectin CSP was achieved.
The total volume for the NMR samples was 500/μl. The lectin was in phosphate-buffered saline (50 mM sodium phosphate, 150 mM NaCl, pH 7.4), either in D2O or 90:10 H2O:D2O depending on the NMR experiment. The pH was adjusted with the required amount of NaOH and HCl or NaOD and DCl.
experiments were acquired using an 800 MHz Bruker spectrometer with a cryoprobe (Bruker, Billerica, MA, United States). The samples were prepared using 50 μM of the ^15N-labeled lectin in the corresponding buffer in a 90:10 H2O:D2O ratio. The experiments were performed at 298 K. Six to nine points were recorded for each ligand and CSP and KD were calculated using CcpNmr Analysis 2.4.2.

[3] = target: T1, N-terminal CRD of hGalectin-4 (Gal-4N); experiment: 1H Saturation Transfer Difference (STD) NMR epitope mapping
Description: ^1H-saturation transfer difference NMR spectra were acquired for mixtures of Gal-4N (50 μM) with a 50-fold excess of ligand. Protein aromatic irradiation afforded the best STD intensities and thus these are discussed henceforth. The STD NMR spectra were very similar among the different ligands with respect to both the observed glycan protons and their intensities. […] Severe proton overlapping precluded a full comparison among ligands, but key isolated ^1H NMR resonance signals permitted to highlight evident differences.
All the STD NMR experiments were performed using an 800 MHz Bruker spectrometer with a cryoprobe (Bruker, Billerica, MA, United States). The samples were prepared in the corresponding deuterated buffer. The temperature was 288 K for every experiment. An amount of 50 μM of the lectin with 50 equivalents of the ligand was employed for every experiment except for lactose, for which a 1:70 ratio was used. The STD spectra were acquired with 1,024 scans, 2 s of saturation time using a train of 50 ms Gaussian-shaped pulses, and 3 s of relaxation delay. The spin-lock filter applied to remove the signals of the lectin was set at 40 ms. The on-resonance frequency was set for the aromatic region at 6.58 ppm, while the off-resonance frequency was set at 100 ppm.
Supplementary Table S1. Relative STD-AF (Amplification factor) and STD percentage of each non overlapping proton of each ligand.

[4] = 1H-residue H4GalNAc (B type 4, core GalNAc)

SMILES | -TΔS (kcal mol^–1) (ITC) [1] | ΔG (kcal mol^–1) (ITC) [1] | ΔH (kcal mol^–1) (ITC) [1] | Kd [1] | Kd [2] | STD% ([3]; 1H-residue H1 Fuc) | STD-AF ([3]; 1H-residue H1 Fuc) | STD% ([3]; 1H-residue H1Galα) | STD-AF ([3]; 1H-residue H1Galα) | STD% ([3]; 1H-residue H1Galβ) | STD-AF ([3]; 1H-residue H1Galβ) | STD% ([3]; 1H-residue H3Galβ) | STD-AF ([3]; 1H-residue H3Galβ) | STD% ([3]; 1H-residue H4Galβ) | STD-AF ([3]; 1H-residue H4Galβ) | STD% ([3]; 1H-residue H5Galβ) | STD-AF ([3]; 1H-residue H5Galβ) | STD% ([3]; 1H-residue MetFuc) | STD-AF ([3]; 1H-residue MetFuc) | STD% ([3]; 1H-residue H2Galβ) | other results
OC[C@H]1O[C@@H](O[C@H]2[C@H](O)[C@@H](O)C(O)O[C@@H]2CO)[C@H](O)[C@@H](O)[C@H]1O (mixture of isomers) [Lactose] |  |  |  |  |  |  |  |  |  |  |  |  |  |  |  |  |  |  |  |  | pKd ([2]; NMR titration, read-out: KD): 2.80
CC(=O)N[C@H]1[C@@H](O[C@H]2[C@@H](O)[C@@H](CO)O[C@@H](O[C@H]3[C@@H](O)[C@@H](CO)O[C@@H](O[C@@H]4[C@@H](O)[C@H](O)O[C@H](CO)[C@@H]4O)[C@@H]3NC(C)=O)[C@@H]2O[C@@H]2O[C@@H](C)[C@@H](O)[C@@H](O)[C@@H]2O)O[C@H](CO)[C@H](O)[C@@H]1O [A type-4 (penta)] |  |  |  |  | 1380 µM |  |  |  |  | 61% | 0.0092 | 21% | 0.0032 | 71% | 0.0108 | 100% | 0.0152 |  | 0.0012 | 36% | STD% ([3]; 1H-residue H1GalNAc): 95%; STD-AF ([3]; 1H-residue H1GalNAc, 50:1 ligand:lectin, 288 K): 0.0145; STD-AF ([3]; 1H-residue H2Galβ): 0.0054; STD% ([3]; 1H-residue H3GalNAc): 28%; STD-AF ([3]; 1H-residue H3GalNAc): 0.0043; STD% ([3]; 1H-residue H3GalNAcb): 15%; STD-AF ([3]; 1H-residue H3GalNAcb): 0.0023; STD% ([3]; 1H-residue H4GalNAcb): 24%; STD-AF ([3]; 1H-residue H4GalNAcb): 0.0036; STD% ([3]; 1H-residue NHAc GalNAc): 68%; STD-AF ([3]; 1H-residue NHAc GalNAc): 0.0104
CC(=O)NC1C(OC2C(O)C(O)OC(CO)C2O)OC(CO)C(O)C1OC1OC(CO)C(O)C(OC2OC(CO)C(O)C(O)C2O)C1OC1OC(C)C(O)C(O)C1O (stereo not shown) [B type-4 (penta)] |  |  |  |  | 460 µM | 21% | 0.0020 | 100% | 0.0094 | 49% | 0.0046 |  |  | 68% | 0.0064 | 86% | 0.0081 | 10% | 0.0009 | 47% | STD-AF ([3]; 1H-residue H2Galβ): 0.0044; STD% ([3]; 1H-residue H3Galα): 44%; STD-AF ([3]; 1H-residue H3Galα): 0.0041; STD% [3, 4]: 30%; STD-AF [3, 4]: 0.0028; STD% ([3]; 1H-residue NHAc (B type 4)): 36%; STD-AF ([3]; 1H-residue NHAc (B type 4)): 0.0034

Continued, in another order:

-TΔS (kcal mol^–1) (ITC) [1] | ΔG (kcal mol^–1) (ITC) [1] | ΔH (kcal mol^–1) (ITC) [1] | Kd [1] | Kd [2] | STD% ([3]; 1H-residue H1 Fuc) | STD-AF ([3]; 1H-residue H1 Fuc) | STD% ([3]; 1H-residue H1Galα) | STD-AF ([3]; 1H-residue H1Galα) | STD% ([3]; 1H-residue H1Galβ) | STD-AF ([3]; 1H-residue H1Galβ) | STD% ([3]; 1H-residue H3Galβ) | STD-AF ([3]; 1H-residue H3Galβ) | STD% ([3]; 1H-residue H4Galβ) | STD-AF ([3]; 1H-residue H4Galβ) | STD% ([3]; 1H-residue H5Galβ) | STD-AF ([3]; 1H-residue H5Galβ) | STD% ([3]; 1H-residue MetFuc) | STD-AF ([3]; 1H-residue MetFuc) | STD% ([3]; 1H-residue H2Galβ) | SMILES | other results
1.8 kcal mol^–1 | −5.1 kcal mol^–1 | −6.9 kcal mol^–1 | 187 µM | 370 µM |  |  |  |  |  |  |  |  |  |  |  |  |  |  |  | CC(=O)NC1C(O)OC(CO)C(OC2OC(CO)C(O)C(OC3OC(CO)C(O)C(O)C3NC(C)=O)C2OC2OC(C)C(O)C(O)C2O)C1O (stereo not shown) [A type−2 (tetra)] | 
3.8 kcal mol^–1 | −5.5 kcal mol^–1 | −9.3 kcal mol^–1 | 88 µM | 190 µM | 16% | 0.0024 | 73% | 0.0108 | 59% | 0.0088 | 36% | 0.0054 | 55% | 0.0081 | 100% | 0.0148 | 16% | 0.0023 |  | CC(=O)NC1C(O)OC(CO)C(OC2OC(CO)C(O)C(OC3OC(CO)C(O)C(O)C3O)C2OC2OC(C)C(O)C(O)C2O)C1O (stereo not shown) [B type-2 (tetra)] | STD% ([3]; 1H-residue H1GlcNAc): 24%; STD-AF ([3]; 1H-residue H1GlcNAc): 0.0035; STD% ([3]; 1H-residue H3GlcNAc): 36%; STD-AF ([3]; 1H-residue H3GlcNAc): 0.0054; STD% ([3]; 1H-residue H4Galα): 18%; STD-AF ([3]; 1H-residue H4Galα): 0.0027; STD-AF ([3]; 1H-residue NHAcGlcNAc (B type 1: first of two lines)): 0.0035
1.0 kcal mol^–1 | −4.9 kcal mol^–1 | −5.9 kcal mol^–1 | 267 µM |  |  |  |  |  |  |  |  |  |  |  |  |  |  |  |  | CC(=O)N[C@@H]1[C@@H](O[C@@H]2O[C@H](CO)[C@H](O)[C@H](O[C@H]3O[C@H](CO)[C@H](O)[C@H](O)[C@H]3NC(C)=O)[C@H]2O[C@@H]2O[C@@H](C)[C@@H](O)[C@@H](O)[C@@H]2O)[C@H](O)[C@@H](CO)O[C@H]1O [A type-1 (tetra)] | 
